Assay results: patent publication US5380715A, “Ap4 A as a hypotensive agent” (Fujirebio Inc., priority 1992, dated 1995)

Test system: dogs
Assay: Gradual hypotension during anesthesia in dogs (hemodynamics, blood gas)
Format: in vivo, mongrel dogs
Settings: dog, enflurane
Experimental: Dogs were anesthetized with enflurane. […] The mean blood pressure (B.P.), heart rate (H.R.), cardiac output (C.O.), arterial oxygen tension (PaO2), mixed venos oxygen tension (PvO2), arterial carbonate tension (PaCO2), mixed venous carbonate tension (PvCO2), arterial pH (pH-a), mixed venous pH (pH-v), and base excess thereof were measured.
Mongrel dogs weighing 9 to 17 kg were anesthetized with intravenous thiopental 20 mg/kg by bolus injection, followed by 1% enflurane in 40% O2 /N2 after endotracheal intubation. […] Bilateral femoral arteries were catheterized, one for the determination of blood pressure and the other for blood sampling.
Access to the bilateral femoral veins was obtained for the administration of Ap4A, PG E1 or nitroglycerin and for the insertion of a ballon-tipped thermodilution catheter. The electrocardiogram was continuously monitored. The control values were obtained before the administration of each of the above-mentioned three agents. Each agent was administered using a syringe pump at titrated doses to produce gradual 20%, 40%, 50%, 60%, and 80% decreases in the mean arterial pressure (MAP) from the control value.
After the target blood pressure and stable hemodynamic conditions were reached, the following parameters were measured: heart rate (HR), mean pulmonary artery pressure (PAM), pulmonary capillary wedge pressure (PCWP), and central venous pressure (CVP). Cardiac output (CO) was determined by the thermodilution method. Gas analyses of arterial and mixed venous bloods were performed using a blood gas analyzer.

Nc1ncnc2c1ncn2[C@@H]1O[C@H](COP(=O)(O)OP(=O)(O)OP(=O)(O)OP(=O)(O)OC[C@H]2O[C@@H](n3cnc4c(N)ncnc43)[C@H](O)[C@@H]2O)[C@@H](O)[C@H]1O [Ap4A, diadenosine 5',5'"-p^1,p^4 -tetraphosphate]
fall in blood pressure attainable: ~60% | Arterial Carbonate Tension PaCO2 (at -20% blood pressure): 36.0 ± 1.0 mmHg | Arterial Oxygen Tension PaO2 (at -20% blood pressure): 252.8 ± 7.2 mmHg | Arterial pH (pH-a) (at -20% blood pressure): 7.337 ± 0.013 | Body Temperature BT (at -20% blood pressure): 37.2 ± 0.6 °C | Cardiac Output C.O. (at -20% blood pressure): 2.42 ± 0.25 L/min | Central Venous Pressure CVP (at -20% blood pressure): 3.77 ± 0.25 mmHg | Heart Rate H.R. (at -20% blood pressure): 160.1 ± 7.5 beats/min | Hematocrit Value Hct (at -20% blood pressure): 40.6 ± 2.1% | Mean Blood Pressure B.P. (mean) (at -20% blood pressure): 104.3 ± 3.3 | Mean Blood Pressure B.P. (Δ%) (at -20% blood pressure): -19.8 ± 0.4% | Mixed Venous Carbonate Tension PvCO2 (at -20% blood pressure): 39.3 ± 1.2 mmHg | Mixed Venous Oxygen Tension PvO2 (at -20% blood pressure): 61.6 ± 2.4 mmHg | Mixed Venous pH (pH-v) (at -20% blood pressure): 7.308 ± 0.008 | Pulmonary Artery Pressure PAM (at -20% blood pressure): 18.4 ± 1.5 mmHg | Pulmonary Capillary Wedge Pressure PCWP (at -20% blood pressure): 8.3 ± 1.3 mmHg | Base Excess BE (at -20% blood pressure (Table 1)): -5.39 ± 0.77 mBq-1 | Arterial Carbonate Tension PaCO2 (at -40% blood pressure): 35.3 ± 1.0 mmHg | Arterial Oxygen Tension PaO2 (at -40% blood pressure): 253.8 ± 7.6 mmHg | Arterial pH (pH-a) (at -40% blood pressure): 7.341 ± 0.018 | Body Temperature BT (at -40% blood pressure): 37.3 ± 0.6 °C | Cardiac Output C.O. (at -40% blood pressure): 2.22 ± 0.15 L/min | Central Venous Pressure CVP (at -40% blood pressure): 3.89 ± 0.29 mmHg | Heart Rate H.R. (at -40% blood pressure): 154.9 ± 6.9 beats/min | Hematocrit Value Hct (at -40% blood pressure): 40.6 ± 1.7% | Mean Blood Pressure B.P. (mean) (at -40% blood pressure): 78.2 ± 2.3 | Mean Blood Pressure B.P. (Δ%) (at -40% blood pressure): -39.8 ± 0.4% | Mixed Venous Carbonate Tension PvCO2 (at -40% blood pressure): 36.6 ± 1.3 mmHg | Mixed Venous Oxygen Tension PvO2 (at -40% blood pressure): 63.3 ± 1.7 mmHg | Mixed Venous pH (pH-v) (at -40% blood pressure): 7.311 ± 0.009 | Pulmonary Artery Pressure PAM (at -40% blood pressure): 17.8 ± 1.6 mmHg | Pulmonary Capillary Wedge Pressure PCWP (at -40% blood pressure): 8.0 ± 1.2 mmHg | Base Excess BE (at -40% blood pressure (Table 1)): -5.52 ± 0.89 mBq-1 | Arterial Carbonate Tension PaCO2 (at -50% blood pressure): 35.0 ± 1.1 mmHg | Arterial Oxygen Tension PaO2 (at -50% blood pressure): 252.5 ± 7.5 mmHg | Arterial pH (pH-a) (at -50% blood pressure): 7.338 ± 0.011 | Body Temperature BT (at -50% blood pressure): 37.2 ± 0.6 °C | Cardiac Output C.O. (at -50% blood pressure): 2.02 ± 0.16 L/min | Central Venous Pressure CVP (at -50% blood pressure): 3.64 ± 0.35 mmHg | Heart Rate H.R. (at -50% blood pressure): 144.0 ± 7.3 beats/min | Hematocrit Value Hct (at -50% blood pressure): 40.7 ± 1.7% | Mean Blood Pressure B.P. (mean) (at -50% blood pressure): 65.4 ± 2.0 | Mean Blood Pressure B.P. (Δ%) (at -50% blood pressure): -49.6 ± 0.4% | Mixed Venous Carbonate Tension PvCO2 (at -50% blood pressure): 36.7 ± 1.4 mmHg | Mixed Venous Oxygen Tension PvO2 (at -50% blood pressure): 60.5 ± 2.1 mmHg | Mixed Venous pH (pH-v) (at -50% blood pressure): 7.308 ± 0.011 | Pulmonary Artery Pressure PAM (at -50% blood pressure): 16.3 ± 1.4 mmHg | Pulmonary Capillary Wedge Pressure PCWP (at -50% blood pressure): 7.6 ± 1.2 mmHg | Base Excess BE (at -50% blood pressure (Table 1)): -5.77 ± 0.66 mBq-1 | Arterial Carbonate Tension PaCO2 (at -60% blood pressure): 34.6 ± 1.3 mmHg | Arterial Oxygen Tension PaO2 (at -60% blood pressure): 253.8 ± 7.7 mmHg | Arterial pH (pH-a) (at -60% blood pressure): 7.315 ± 0.010 | Body Temperature BT (at -60% blood pressure): 37.2 ± 0.6 °C | Cardiac Output C.O. (at -60% blood pressure): 1.55 ± 0.20 L/min | Central Venous Pressure CVP (at -60% blood pressure): 3.63 ± 0.44 mmHg | Dose (at -60% blood pressure): 242.4 ± 32.8 µg/kg/min
